Reference: ChEMBL document CHEMBL1201862, “PubChem BioAssay data set” (2004)
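Each compound was tested at five concentrations against cells in 96-well plates for 48 hours. GI50: concentration for 50% inhibition of growth.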 Activity calls are given as the source filed them. No stated cut-off is given here; in the data, active = GI50 up to about 1.1 µM and inactive = higher. Starred links: 1 amine or outer side, 2 acyl side, 3 side chain; linkers in the order of their positions; H or OH if unused. Non-standard residues stand in square brackets, D forms with d. Residues, ends and D or L forms follow the SMILES beside them. X41 = CSCCCC(N[*:1])C(=O)[*:2]

Tests used:
Test in all cases: growth of human tumour cells (NCI), 48 h
UACC-257 = test system: UACC-257
OVCAR-4 = test system: OVCAR-4
HT-29 = test system: HT-29
HL-60 = test system: HL-60
A549 = test system: A549
HCC 2998 = test system: HCC 2998
Hs-578T = test system: Hs-578T
SK-MEL-28 = test system: SK-MEL-28
HOP-92 = test system: HOP-92
SK-OV-3 = test system: SK-OV-3
PC-3 = test system: PC-3
HOP-62 = test system: HOP-62
SNB-19 = test system: SNB-19
A498 = test system: A498
SF-268 = test system: SF-268
NCI-H460 = test system: NCI-H460
ACHN = test system: ACHN
RXF 393 = test system: RXF 393

In the case of `S=C(NCc1ccccc1)N/N=C/c1ccccn1`, the GI50 (UACC-257) is reported as 2.42 µM (inactive), the GI50 (OVCAR-4) is reported as 3.01 µM (inactive) and the GI50 (HT-29) is reported as 0.743 µM (active). The GI50 (HL-60) was 0.0302 µM (active), the GI50 (A549) was 4.29 µM (inactive) and the GI50 (HCC 2998) was 6.31 µM (inactive). For the same molecule, the GI50 (Hs-578T) was 14.8 µM (inactive), the GI50 (SK-MEL-28) was 5.62 µM (inactive) and the GI50 (HOP-92) was 2.21 µM (inactive). The GI50 (SK-OV-3) was 3.94 µM (inactive), the GI50 (PC-3) was 0.762 µM (active) and the GI50 (HOP-62) was 3.7 µM (inactive). The GI50 (SNB-19) was 7.93 µM (inactive), the GI50 (A498) was 3.87 µM (inactive) and the GI50 (SF-268) was 1.42 µM (inactive). The GI50 (NCI-H460) was 2.04 µM (inactive) and the GI50 (ACHN) was 1.27 µM (inactive).
With `Cc1ccc2[nH]c(=O)c(-c3cnc(O)nn3)c(O)c2c1` the GI50 (RXF 393) was 17.2 µM (inactive), the GI50 (UACC-257) was 57.4 µM (inactive) and the GI50 (OVCAR-4) was 17.8 µM (inactive). For the same molecule, the GI50 (HT-29) was > 100 µM (inactive), the GI50 (HL-60) was > 100 µM (inactive) and the GI50 (A549) was 32 µM (inactive). The GI50 (Hs-578T) was > 100 µM (inactive), the GI50 (SK-MEL-28) was > 100 µM (inactive) and the GI50 (SK-OV-3) was > 100 µM (inactive). The GI50 (PC-3) was 15.6 µM (inactive), the GI50 (HOP-62) was > 100 µM (inactive) and the GI50 (A498) was > 100 µM (inactive). The GI50 (SF-268) was > 100 µM (inactive), the GI50 (NCI-H460) was > 100 µM (inactive) and the GI50 (ACHN) was 19.7 µM (inactive).
In the case of `CCC(=O)OCc1ccc2oc(=O)c(C(=O)Oc3cncc(Cl)c3)cc2c1`, the GI50 (RXF 393) is reported as 37.4 µM (inactive), the GI50 (UACC-257) is reported as > 100 µM (inactive) and the GI50 (OVCAR-4) is reported as > 100 µM (inactive). The GI50 (HT-29) was 76 µM (inactive), the GI50 (A549) was > 100 µM (inactive) and the GI50 (HCC 2998) was 35.6 µM (inactive). For the same molecule, the GI50 (Hs-578T) was > 100 µM (inactive), the GI50 (SK-MEL-28) was > 100 µM (inactive) and the GI50 (HOP-92) was 63.2 µM (inactive). The GI50 (SK-OV-3) was > 100 µM (inactive), the GI50 (PC-3) was 46 µM (inactive) and the GI50 (HOP-62) was > 100 µM (inactive). The GI50 (SNB-19) was > 100 µM (inactive), the GI50 (SF-268) was > 100 µM (inactive) and the GI50 (NCI-H460) was > 100 µM (inactive). For the same molecule, the GI50 (ACHN) was > 100 µM (inactive).
With `C[C@]12CC[C@H]3[C@@H](CC=C4C[C@@H](N5CCCC5)CC[C@@]43C)[C@@H]1C/C(=C\c1ccc([N+](=O)[O-])cc1)[C@@H]2O` the GI50 (RXF 393) was 19.9 µM (inactive), the GI50 (UACC-257) was 16.4 µM (inactive) and the GI50 (OVCAR-4) was 12.1 µM (inactive). The GI50 (HT-29) was 13.2 µM (inactive), the GI50 (A549) was 17.1 µM (inactive) and the GI50 (Hs-578T) was 18.5 µM (inactive). For the same molecule, the GI50 (SK-MEL-28) was 14.1 µM (inactive), the GI50 (HOP-92) was 13 µM (inactive) and the GI50 (SK-OV-3) was 15.9 µM (inactive). The GI50 (PC-3) was 24.3 µM (inactive), the GI50 (HOP-62) was 17.9 µM (inactive) and the GI50 (SNB-19) was 24.7 µM (inactive). The GI50 (A498) was 15.3 µM (inactive), the GI50 (SF-268) was 17.5 µM (inactive) and the GI50 (NCI-H460) was 28.1 µM (inactive). For the same molecule, the GI50 (ACHN) was 15.9 µM (inactive).
`NNC(=O)CS(=O)(=O)Nc1ncccn1` was tested, and the GI50 (RXF 393) was > 100 µM (inactive), the GI50 (UACC-257) was > 100 µM (inactive) and the GI50 (OVCAR-4) was > 100 µM (inactive). For the same molecule, the GI50 (HT-29) was > 100 µM (inactive), the GI50 (A549) was > 100 µM (inactive) and the GI50 (Hs-578T) was > 100 µM (inactive). For the same molecule, the GI50 (SK-MEL-28) was > 100 µM (inactive), the GI50 (HOP-92) was > 100 µM (inactive) and the GI50 (SK-OV-3) was > 100 µM (inactive). For the same molecule, the GI50 (PC-3) was > 100 µM (inactive), the GI50 (HOP-62) was > 100 µM (inactive) and the GI50 (SNB-19) was > 100 µM (inactive). The GI50 (A498) was > 100 µM (inactive), the GI50 (SF-268) was > 100 µM (inactive) and the GI50 (NCI-H460) was > 100 µM (inactive). The GI50 (ACHN) was > 100 µM (inactive).
In the case of `O=C(OCCC12CC3CC(CC(C3)C1)C2)c1ccc(NCc2cc(O)ccc2O)cc1`, the GI50 (RXF 393) is reported as 0.638 µM (active), the GI50 (UACC-257) is reported as 0.604 µM (active) and the GI50 (OVCAR-4) is reported as 0.904 µM (active). For the same molecule, the GI50 (HT-29) was 1.94 µM (inactive), the GI50 (HL-60) was 0.176 µM (active) and the GI50 (A549) was 2.14 µM (inactive). The GI50 (Hs-578T) was 0.213 µM (active), the GI50 (SK-MEL-28) was 0.849 µM (active) and the GI50 (HOP-92) was 3.74 µM (inactive). For the same molecule, the GI50 (SK-OV-3) was 2.91 µM (inactive), the GI50 (PC-3) was 0.573 µM (active) and the GI50 (HOP-62) was 3.56 µM (inactive). For the same molecule, the GI50 (SNB-19) was 1.26 µM (inactive), the GI50 (A498) was 1.9 µM (inactive) and the GI50 (SF-268) was 2.49 µM (inactive). For the same molecule, the GI50 (NCI-H460) was 1.51 µM (inactive) and the GI50 (ACHN) was 1.63 µM (inactive).
`CSCCCC(NC(=O)CNC(=O)C1CCCN1C(=O)C(Cc1ccc(O)cc1)NC(=O)C(Cc1ccccc1)NC(=O)C(CCCNC(=N)N)NC(=O)C(CC(=O)O)NC(=O)C1CCCN1C(=O)C(CC(=O)O)NC(=O)C1CCCN1C(=O)C1CCCN1C(=O)CN)C(N)=O` (stereo not drawn) (H-GPPDPDRFYPG[X41]-NH2; configuration not given here) was tested, and the GI50 (UACC-257) was > 50 µM (inactive), the GI50 (OVCAR-4) was > 50 µM (inactive) and the GI50 (HT-29) was > 50 µM (inactive). For the same molecule, the GI50 (HL-60) was > 50 µM (inactive), the GI50 (A549) was > 50 µM (inactive) and the GI50 (Hs-578T) was > 50 µM (inactive). For the same molecule, the GI50 (SK-MEL-28) was > 50 µM (inactive), the GI50 (HOP-92) was > 50 µM (inactive) and the GI50 (SK-OV-3) was > 50 µM (inactive). The GI50 (PC-3) was > 50 µM (inactive), the GI50 (HOP-62) was > 50 µM (inactive) and the GI50 (SNB-19) was > 50 µM (inactive). For the same molecule, the GI50 (A498) was > 50 µM (inactive), the GI50 (SF-268) was > 50 µM (inactive) and the GI50 (ACHN) was > 50 µM (inactive).
In the case of `COCCCN1C(=O)C2c3[nH]c4ccccc4c3C3CCC(C(C)(C)C)CC3C2C1=O` (stereo not drawn), the GI50 (RXF 393) is reported as 21.3 µM (inactive), the GI50 (UACC-257) is reported as 27.7 µM (inactive) and the GI50 (OVCAR-4) is reported as 31.5 µM (inactive). The GI50 (HT-29) was 15.3 µM (inactive), the GI50 (HL-60) was 23.4 µM (inactive) and the GI50 (A549) was 32.6 µM (inactive). The GI50 (HCC 2998) was 20.3 µM (inactive), the GI50 (Hs-578T) was 32.1 µM (inactive) and the GI50 (SK-MEL-28) was 38 µM (inactive). For the same molecule, the GI50 (SK-OV-3) was > 100 µM (inactive), the GI50 (PC-3) was 19.1 µM (inactive) and the GI50 (HOP-62) was 22.4 µM (inactive). For the same molecule, the GI50 (SNB-19) was 33 µM (inactive), the GI50 (SF-268) was 43.7 µM (inactive) and the GI50 (NCI-H460) was 18.7 µM (inactive). For the same molecule, the GI50 (ACHN) was 27.4 µM (inactive).
